Source: PubChem BioAssay AID330 (DTP/NCI, 2004)
Values joined by “and” are separate entries in the source; they are usually repeats but may differ in a detail not shown here. Equal values may be shown once. Inconclusive results and toxic doses are left out.

Test system: P388 leukemia ip, CD2F1 mice, survival T/C
Assay: NCI In Vivo Anticancer Drug Screen. Data for tumor model P388 Leukemia (intraperitoneal) in CD2F1 (CDF1) mice
Details: endpoint: median survival time, higher = longer survival
Method in brief: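 Mice carrying the transplanted tumor received test compound or vehicle. Survival was recorded in each group, and the value is the treated-group measurement divided by that of the vehicle-treated control group.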

[1] = dose: 50.0 mg/kg/injection, schedule: Q01DX009 (ip), vehicle: saline with Tween-80
[2] = dose: 100.0 mg/kg/injection, schedule: Q01DX009 (ip), vehicle: saline with Tween-80
[3] = dose: 200.0 mg/kg/injection, schedule: Q01DX009 (ip), vehicle: saline with Tween-80
[4] = dose: 50.0 mg/kg/injection, schedule: Q01DX005 (ip), vehicle: Klucel (hydroxypropylcellulose) (HPC)
[5] = dose: 100.0 mg/kg/injection, schedule: Q01DX005 (ip), vehicle: Klucel (hydroxypropylcellulose) (HPC)
[6] = dose: 200.0 mg/kg/injection, schedule: Q01DX005 (ip), vehicle: Klucel (hydroxypropylcellulose) (HPC)
[7] = dose: 50.0 mg/kg/injection, schedule: Q01DX009 (ip), vehicle: Klucel (hydroxypropylcellulose) (HPC)
[8] = dose: 100.0 mg/kg/injection, schedule: Q01DX001 (ip), vehicle: saline with Tween-80
[9] = dose: 400.0 mg/kg/injection, schedule: Q01DX001 (ip), vehicle: saline with Tween-80

Cc1c(COC(=O)NC(C)C)c(COC(=O)NC(C)C)c2c3ccccc3c3ccccc3n12
T/C (dose: 12.5 mg/kg/injection, schedule: Q01DX009 (ip), vehicle: distilled water + Tween-80): 180 % of control
T/C (dose: 25.0 mg/kg/injection, schedule: Q01DX009 (ip), vehicle: distilled water + Tween-80): 173 % of control
T/C (dose: 50.0 mg/kg/injection, schedule: Q01DX009 (ip), vehicle: distilled water + Tween-80): 110 % of control
T/C (dose: 100.0 mg/kg/injection, schedule: Q01DX009 (ip), vehicle: distilled water + Tween-80): 88 % of control

CCN(CC)CCCC(C)NC(Cc1ccccc1)c1cccc2ccccc12 (configuration not stated)
T/C (dose: 25.0 mg/kg/injection, schedule: Q01DX005 (ip), vehicle: suspension in saline): 100 % of control
T/C (dose: 50.0 mg/kg/injection, schedule: Q01DX005 (ip), vehicle: suspension in saline): 106 % of control

CC(C)NCC(O)c1ccc(O)c2ncccc12 (configuration not stated)
T/C (dose: 50.0 mg/kg/injection, schedule: Q01DX005 (ip), vehicle: saline): 100 % of control
T/C (dose: 100.0 mg/kg/injection, schedule: Q01DX005 (ip), vehicle: saline): 100 % of control
T/C (dose: 200.0 mg/kg/injection, schedule: Q01DX005 (ip), vehicle: saline): 101 % of control

Nc1nc2c(ncn2C2OC(CO)C(O)C2O)c(=O)[nH]1.[Cl-].[Cl-].[NH2-].[NH2-].[Pt+4] (configuration not stated)
T/C (dose: 2.0 mg/kg/injection, schedule: Q01DX009 (ip), vehicle: saline): 118 % of control
T/C (dose: 4.0 mg/kg/injection, schedule: Q01DX009 (ip), vehicle: saline): 122 % of control
T/C (dose: 8.0 mg/kg/injection, schedule: Q01DX009 (ip), vehicle: saline): 172 % of control and 178 % of control
T/C (dose: 16.0 mg/kg/injection, schedule: Q01DX009 (ip), vehicle: saline): 216 % of control and 238 % of control
T/C (dose: 32.0 mg/kg/injection, schedule: Q01DX009 (ip), vehicle: saline): 93 % of control

CC1=NN(C(=O)c2ccncc2)C(=O)C1N=Nc1ccc(S(=O)(=O)N=C(N)N)cc1 (configuration not stated)
T/C [1]: 97 % of control
T/C [2]: 94 % of control
T/C [3]: 90 % of control

O=C(OCC(Cl)(Cl)Cl)N1[C@H]2C3=C(CCC3)[C@@H]([C@H]3O[C@H]32)N1C(=O)OCC(Cl)(Cl)Cl
T/C [4]: 97 % of control
T/C [5]: 97 % of control
T/C [6]: 97 % of control

COc1ccc2nc(N(C)C)cc(N(C)C)c2c1
T/C (dose: 12.5 mg/kg/injection, schedule: Q01DX009 (ip), vehicle: Klucel (hydroxypropylcellulose) (HPC)): 94 % of control
T/C (dose: 25.0 mg/kg/injection, schedule: Q01DX009 (ip), vehicle: Klucel (hydroxypropylcellulose) (HPC)): 94 % of control
T/C [7]: 87 % of control

Cc1c2noc1CCCCCCCCCCC2
T/C [4]: 104 % of control
T/C [5]: 110 % of control
T/C [6]: 102 % of control

O=S(=O)(O)c1c(O)c2ccccc2c2nc3ccccc3nc12
T/C (dose: 50.0 mg/kg/injection, schedule: Q01DX007 (ip), vehicle: saline): 105 % of control
T/C (dose: 100.0 mg/kg/injection, schedule: Q01DX007 (ip), vehicle: saline): 87 % of control

CC(C)(N)P(=O)(O)O
T/C (dose: 25.0 mg/kg/injection, schedule: Q01DX009 (ip), vehicle: suspension in saline): 96 % of control
T/C (dose: 50.0 mg/kg/injection, schedule: Q01DX009 (ip), vehicle: suspension in saline): 92 % of control
T/C (dose: 100.0 mg/kg/injection, schedule: Q01DX009 (ip), vehicle: suspension in saline): 100 % of control
T/C (dose: 200.0 mg/kg/injection, schedule: Q01DX009 (ip), vehicle: suspension in saline): 106 % of control

CC(C)(C(=O)c1ccccc1)C(=O)c1ccccc1
T/C [1]: 95 % of control
T/C [2]: 100 % of control
T/C [3]: 95 % of control

CC(C)(C#N)Nc1ccccc1
T/C (dose: 3.13 mg/kg/injection, schedule: Q04DX003 (ip), vehicle: saline with Tween-80): 87 % of control
T/C (dose: 6.25 mg/kg/injection, schedule: Q04DX003 (ip), vehicle: saline with Tween-80): 100 % of control and 95 % of control
T/C (dose: 12.5 mg/kg/injection, schedule: Q04DX003 (ip), vehicle: saline with Tween-80): 100 % of control
T/C (dose: 25.0 mg/kg/injection, schedule: Q04DX003 (ip), vehicle: saline with Tween-80): 100 % of control

C=C1C(=O)OC2/C=C(\COC(C)=O)CCC(OC(C)=O)C3=CC(OC3=O)C12 (configuration not stated)
T/C (dose: 1.87 mg/kg/injection, schedule: Q01DX009 (ip), vehicle: Klucel (hydroxypropylcellulose) (HPC)): 95 % of control
T/C (dose: 3.75 mg/kg/injection, schedule: Q01DX009 (ip), vehicle: Klucel (hydroxypropylcellulose) (HPC)): 102 % of control
T/C (dose: 7.5 mg/kg/injection, schedule: Q01DX009 (ip), vehicle: Klucel (hydroxypropylcellulose) (HPC)): 96 % of control
T/C (dose: 15.0 mg/kg/injection, schedule: Q01DX009 (ip), vehicle: Klucel (hydroxypropylcellulose) (HPC)): 117 % of control

O=NNc1cnc(-c2ccccc2)c(-c2ccccc2)n1
T/C (dose: 3.12 mg/kg/injection, schedule: Q01DX009 (ip), vehicle: water): 103 % of control
T/C (dose: 6.25 mg/kg/injection, schedule: Q01DX009 (ip), vehicle: water): 104 % of control
T/C (dose: 12.5 mg/kg/injection, schedule: Q01DX009 (ip), vehicle: water): 105 % of control and 111 % of control
T/C (dose: 25.0 mg/kg/injection, schedule: Q01DX009 (ip), vehicle: water): 116 % of control and 117 % of control
T/C (dose: 100.0 mg/kg/injection, schedule: Q01DX009 (ip), vehicle: water): 96 % of control

Cc1cccc(-n2nc(C(=O)O)c(=O)[nH]c2=O)c1
T/C [8]: 104 % of control
T/C (dose: 200.0 mg/kg/injection, schedule: Q01DX001 (ip), vehicle: saline with Tween-80): 99 % of control
T/C [9]: 95 % of control

C1=[N+]2N=C(SCc3ccccc3)S[B-]2([C+]2CCCCC2)Oc2ccccc21 (configuration not stated)
T/C (dose: 50.0 mg/kg/injection, schedule: Q01DX005 (ip), vehicle: saline with Tween-80): 91 % of control
T/C (dose: 100.0 mg/kg/injection, schedule: Q01DX005 (ip), vehicle: saline with Tween-80): 94 % of control
T/C (dose: 200.0 mg/kg/injection, schedule: Q01DX005 (ip), vehicle: saline with Tween-80): 91 % of control

CCCCCCCCCCCCCCCCCC[N+]1(CC)CCSCC1
T/C (dose: 25.0 mg/kg/injection, schedule: Q01DX001 (ip), vehicle: saline with Tween-80): 97 % of control
T/C (dose: 50.0 mg/kg/injection, schedule: Q01DX001 (ip), vehicle: saline with Tween-80): 98 % of control
T/C [8]: 94 % of control
T/C [9]: 86 % of control

Cc1ccc2c(Nc3ccc(NS(C)(=O)=O)cc3C)c3ccccc3nc2c1
T/C (dose: 12.5 mg/kg/injection, schedule: Q01DX009 (ip), vehicle: saline): 150 % of control and 161 % of control
T/C (dose: 12.5 mg/kg/injection, schedule: Q04DX003 (ip), vehicle: saline): 98 % of control
T/C (dose: 25.0 mg/kg/injection, schedule: Q01DX009 (ip), vehicle: saline): 156 % of control and 157 % of control
T/C (dose: 25.0 mg/kg/injection, schedule: Q04DX003 (ip), vehicle: saline): 96 % of control
T/C (dose: 50.0 mg/kg/injection, schedule: Q04DX003 (ip), vehicle: saline): 97 % of control
T/C (dose: 100.0 mg/kg/injection, schedule: Q04DX003 (ip), vehicle: saline): 95 % of control

CNCCN1CCC(Cc2ccccc2)CC1
T/C (dose: 50.0 mg/kg/injection, schedule: Q01DX009 (ip), vehicle: saline): 100 % of control
T/C (dose: 100.0 mg/kg/injection, schedule: Q01DX009 (ip), vehicle: saline): 100 % of control

O=C([OH2+])C[N]1C(=O)C[NH][Ga]1[Cl].O=C([OH2+])C[N]1C(=O)C[NH][Ga]1[Cl]
T/C [4]: 108 % of control
T/C [5]: 100 % of control
T/C [6]: 98 % of control

Cc1ccc(C)c(Nc2ccccc2[N+](=O)[O-])c1
T/C [1]: 103 % of control
T/C [2]: 108 % of control
T/C [3]: 100 % of control
T/C (dose: 400.0 mg/kg/injection, schedule: Q01DX009 (ip), vehicle: saline with Tween-80): 112 % of control

C=C(CN1CCN(C)CC1)C(=O)c1ccccc1
T/C (dose: 1.89 mg/kg/injection, schedule: Q01DX005 (ip), vehicle: saline): 113 % of control
T/C (dose: 3.75 mg/kg/injection, schedule: Q01DX005 (ip), vehicle: saline): 116 % of control
T/C (dose: 7.5 mg/kg/injection, schedule: Q01DX005 (ip), vehicle: saline): 105 % of control and 112 % of control

CCOC(=O)c1ccccc1SC(C[N+](=O)[O-])c1ccccc1 (configuration not stated)
T/C [7]: 105 % of control
T/C (dose: 100.0 mg/kg/injection, schedule: Q01DX009 (ip), vehicle: Klucel (hydroxypropylcellulose) (HPC)): 110 % of control
T/C (dose: 200.0 mg/kg/injection, schedule: Q01DX009 (ip), vehicle: Klucel (hydroxypropylcellulose) (HPC)): 110 % of control

Cc1cc(C)cc(CSCc2c(CSCc3cc(C)cc(C)c3)c(CSCc3cc(C)cc(C)c3)c(CSCc3cc(C)cc(C)c3)c(CSCc3cc(C)cc(C)c3)c2CSCc2cc(C)cc(C)c2)c1
T/C [1]: 102 % of control
T/C [2]: 100 % of control
T/C [3]: 105 % of control
